Test results as given in US20110144345A1, “SULFOXYIMINO-SUBSTITUTED BENZOYL DERIVATIVE AND HERBICIDE” (NIPPON SODA CO., LTD., priority 2008, published 2011).

Test system: Echinochloa crus-galli
Experiment: Paddy pot test, herbicidal effect on Echinochloa crus-galli
Type: in vivo
Set-up: scale not given here
Details: Screening, 63 g/ha, applied at 1.5-leaf stage, examined after 3 weeks
Procedure: (§1) Plastic pots having an area of 100 cm^2 and a depth of 10 cm were filled with paddy soil which is puddled by adding water, and seeds of Echinochloa crus-galli and Scirpus juncoides were planted in the pots. After seeding, rice plants at the 2.5-leaf stage were transplanted and the pots were filled with water. The rice plants were grown in a greenhouse. […] The herbicidal effects and harmful effects on the rice plants were examined after 3 weeks. Herbicidal effects were examined according to the examination criteria described below and were represented by the herbicidal index. [table] […] [formula]

| Compound | Echinochloa crus-galli (herbicidal index) |
| --- | --- |
| COc1ccc(C(=O)c2cnn(C)c2OS(=O)(=O)c2ccc(C)cc2)c(Cl)c1N=S1(=O)CCCCC1 [Example 106] | 10 |
| COc1ccc(C(=O)c2cnn(C)c2OCc2ccc3ccccc3c2)c(Cl)c1N=S(C)(=O)c1ccccc1 (stereo not drawn) [Example 122] | 10 |
| COc1ccc(C(=O)c2cnn(C)c2OC(=O)SC)c(OC)c1N=S1(=O)CCCCC1 [Example 183] | 7 |

Test system: Scirpus juncoides
Experiment: Paddy pot test, herbicidal effect on Scirpus juncoides
Type: in vivo
Set-up: scale not given here
Details: Screening, 63 g/ha, examined after 3 weeks
Procedure: as §1

| Compound | Scripus juncoides (herbicidal index) |
| --- | --- |
| COc1ccc(C(=O)c2cnn(C)c2OS(=O)(=O)c2ccc(C)cc2)c(Cl)c1N=S1(=O)CCCCC1 [Example 106] | 8 |
| COc1ccc(C(=O)c2cnn(C)c2OCc2ccc3ccccc3c2)c(Cl)c1N=S(C)(=O)c1ccccc1 (stereo not drawn) [Example 122] | 6 |
| COc1ccc(C(=O)c2cnn(C)c2OC(=O)SC)c(OC)c1N=S1(=O)CCCCC1 [Example 183] | 6 |

Test system: rice plants
Experiment: Paddy pot test, harmful effects on transplanted rice plants
Type: in vivo
Set-up: scale not given here
Details: Screening, 63 g/ha, applied at Echinochloa crus-galli 1.5-leaf stage, examined after 3 weeks
Procedure: as §1

| Compound | Rice (harmful effects on the rice plants, index) |
| --- | --- |
| COc1ccc(C(=O)c2cnn(C)c2OS(=O)(=O)c2ccc(C)cc2)c(Cl)c1N=S1(=O)CCCCC1 [Example 106] | 0 |
| COc1ccc(C(=O)c2cnn(C)c2OCc2ccc3ccccc3c2)c(Cl)c1N=S(C)(=O)c1ccccc1 (stereo not drawn) [Example 122] | 0 |
| COc1ccc(C(=O)c2cnn(C)c2OC(=O)SC)c(OC)c1N=S1(=O)CCCCC1 [Example 183] | 0 |

Test system: not given
Experiment: not given
Details: not given

| Compound | melting point [°C] |
| --- | --- |
| CCS(=O)(CC)=Nc1c(OC)ccc(C(=O)c2cnn(C)c2O)c1OC [Example 140] | 96 to 98 |
| CON=Cc1ccc(C(=O)c2cnn(C)c2O)c(Cl)c1N=S1(=O)CCCCC1 [Example 55] | 98 to 105 |
| COC(=O)c1ccc(C(=O)c2cnn(C)c2O)c(Br)c1N=S1(=O)CCOCC1 [Example 69] | 158 to 164 |
| Cn1ncc(C(=O)c2cccc(N=S3(=O)CCCCC3)c2)c1O [Example 35] | 112 to 113 |
| COC(=O)c1ccc(C(=O)c2cnn(C)c2O)c(Cl)c1N=S1(=O)CCOCC1 [Example 25] | 147 to 149 |
| COC(=O)c1ccc(C(=O)c2cnn(C)c2O)c(Cl)c1N=S1(=O)CCCCC1 [Example 21] | 204 to 206 |
| O=C1CCCC(O)=C1C(=O)c1ccc(OCc2ccccc2)c(N=S2(=O)CCCCC2)c1Cl [Example 65] | 152 to 155 |
| COc1ccc(C(=O)c2cnn(C)c2O)c(Cl)c1N=S(C)(=O)c1ccccc1 (stereo not drawn) [Example 249] | 88 to 91 |
| CCOc1c(C(=O)c2cnn(C)c2O)ccc(OC)c1N=S1(=O)CCCCC1 [Example 156] | 111 to 113 |
| Cn1ncc(C(=O)c2ccc(OCC3CC3)c(N=S3(=O)CCCCC3)c2Cl)c1O [Example 215] | 188 to 190 |
| COc1ccc(C(=O)c2cnn(C)c2O)c(OC)c1N=S1(=O)CCCCC1 [Example 99] | 116 to 118 |
| COCCOCOc1ccc(C(=O)c2cnn(C)c2O)c(Cl)c1N=S1(=O)CCCCC1 [Example 259] | 77 to 79 |
| Cn1ncc(C(=O)c2ccc(-c3ccco3)c(N=S3(=O)CCCCC3)c2Cl)c1O [Example 228] | 97 to 103 |
| CC(=O)OCc1ccc(C(=O)c2cnn(C)c2O)c(Cl)c1N=S1(=O)CCCCC1 [Example 83] | 64 to 68 |
| CCn1ncc(C(=O)c2ccc(C(=O)OC)c(N=S3(=O)CCCCC3)c2Cl)c1O [Example 30] | 201 to 203 |
| CCn1ncc(C(=O)c2ccc(OC)c(N=S3(=O)CCCCC3)c2[N+](=O)[O-])c1O [Example 77] | 190 to 192 |
| COc1ccc(C(=O)C2=C(O)CCCC2=O)c(OC)c1N=S1(=O)CCCCC1 [Example 92] | 129 to 131 |
| C#CCOc1ccc(C(=O)c2cnn(C)c2O)c(Cl)c1N=S1(=O)CCCCC1 [Example 205] | 169 to 171 |
| COCc1ccc(C(=O)c2cnn(C)c2O)c(Cl)c1N=S1(=O)CCCCC1 [Example 52] | 78 to 82 |
| Cn1ncc(C(=O)c2ccc(OCCC3OCCO3)c(N=S3(=O)CCCCC3)c2Cl)c1O [Example 199] | 99 to 101 |
| N#Cc1ccc(C(=O)C2=C(O)CCCC2=O)c(Cl)c1N=S1(=O)CCCCC1 [Example 186] | 124 to 126 |
| CC(C)Oc1ccc(C(=O)c2cnn(C)c2O)c(Cl)c1N=S1(=O)CCCCC1 [Example 16] | 139 to 141 |

| Compound | melting point [°C] |
| --- | --- |
| COC(=O)c1ccc(C(=O)c2cnn(C)c2O)cc1N=S1(=O)CCCCC1 [Example 96] | 133 to 137 |
| Cn1ncc(C(=O)c2ccc(OCC(F)(F)F)c(N=S3(=O)CCCCC3)c2Cl)c1O [Example 144] | 97 to 99 |
| CCOC(=O)c1ccc(C(=O)c2cnn(C)c2O)c(Cl)c1N=S1(=O)CCCCC1 [Example 47] | 88 to 91 |
| CSC(=O)Oc1c(C(=O)c2ccc(OCCC3OCCO3)c(N=S3(=O)CCCCC3)c2Cl)cnn1C [Example 200] | 159 to 161 |
| Cn1ncc(C(=O)c2ccc(OC[S+](C)[O-])c(N=S3(=O)CCCCC3)c2Cl)c1O (stereo not drawn) [Example 245] | 95 to 97 |
| Cn1ncc(C(=O)c2cccc(N=S3(=O)CCCCC3)c2Cl)c1O [Example 39] | 177 to 179 |
| Cn1ncc(C(=O)c2ccc(OCS(C)(=O)=O)c(N=S3(=O)CCCCC3)c2Cl)c1O [Example 241] | 104 to 106 |
| Cn1ncc(C(=O)c2cccc(N=S3(=O)CCCCC3)c2F)c1O [Example 170] | 162 to 164 |
| COc1ccc(C(=O)C(C#N)C(=O)C2CC2)c(Cl)c1N=S1(=O)CCCCC1 (stereo not drawn) [Example 5] | 154 to 156 |
| COc1ccc(C(=O)C2=C(O)CCCC2=O)c(Cl)c1N=S(C)(=O)c1cccs1 (stereo not drawn) [Example 194] | 159 to 162 |
| COc1ccc(C(=O)c2cnn(C)c2OCC(F)(F)F)c(Cl)c1N=S1(=O)CCCCC1 [Example 235] | 131 to 132 |
| CSc1ccc(C(=O)C2=C(O)CCCC2=O)c(Cl)c1N=S1(=O)CCCCC1 [Example 41] | 178 to 180 |
| CSc1c(C(=O)c2cnn(C)c2O)ccc(C(F)(F)F)c1N=S1(=O)CCCCC1 [Example 169] | 155 to 157 |
| COc1ccc(C(=O)c2cnn(C(C)(C)C)c2O)c(Cl)c1N=S1(=O)CCCCC1 [Example 88] | 200 to 202 |
| Cc1ccc(C(=O)c2cnn(C)c2O)c(C)c1N=S(C)(C)=O [Example 168] | 133 to 135 |
| CC(=O)Oc1ccc(C(=O)c2cnn(C)c2O)c(Cl)c1N=S1(=O)CCCCC1 [Example 189] | 135 to 139 |
| Cn1ncc(C(=O)c2ccc(C#N)c(N=S3(=O)CCCCC3)c2Cl)c1O [Example 44] | 192 to 196 |
| CCn1ncc(C(=O)c2ccc(OC)c(N=S3(=O)CCCCC3)c2Cl)c1O [Example 4] | 137 to 139 |
| COc1ccc(C(=O)c2cnn(C)c2O)c([N+](=O)[O-])c1N=S1(=O)CCCCC1 [Example 76] | 179 to 181 |
| COCOc1ccc(C(=O)c2cnn(C)c2O)c(Cl)c1N=S1(=O)CCCCC1 [Example 221] | 93 to 95 |
| COC(=O)c1ccc(C(=O)C2=C(O)CCCC2=O)c(Cl)c1N=S(C)(C)=O [Example 160] | 135 to 137 |
| CCCOc1ccc(C(=O)c2cnn(C)c2O)c(Cl)c1N=S1(=O)CCCCC1 [Example 254] | 85 to 87 |

| Compound | melting point [°C] |
| --- | --- |
| COCCOc1ccc(C(=O)c2cnn(C)c2O)c(Cl)c1N=S1(=O)CCCCC1 [Example 212] | 153 to 155 |
| Cn1ncc(C(=O)c2ccc(OC3CCCC3)c(N=S3(=O)CCCCC3)c2Cl)c1O [Example 49] | 145 to 148 |
| Cn1ncc(C(=O)c2ccc(-c3cccs3)c(N=S3(=O)CCCCC3)c2Cl)c1O [Example 214] | 158 to 164 |
| COc1ccc(C(=O)c2cnn(C)c2O)c(Br)c1N=S1(=O)CCCCC1 [Example 223] | 144 to 146 |
| COc1ccc(C(=O)c2cnn(C)c2OC(=O)C2CC2)c(Cl)c1N=S1(=O)CCCCC1 [Example 246] | 129 to 131 |
| CCOc1ccc(C(=O)c2cnn(C)c2O)c(OC)c1N=S1(=O)CCCCC1 [Example 175] | 109 to 111 |
| CCn1ncc(C(=O)c2ccc(C(=O)OC)c(N=S3(=O)CCOCC3)c2Br)c1O [Example 74] | 210 to 215 |
| Cn1ncc(C(=O)c2ccc(Oc3ccccc3)c(N=S3(=O)CCCCC3)c2Cl)c1O [Example 180] | 134 to 137 |
| CCS(=O)(CC)=Nc1c(C)ccc(C(=O)c2cnn(C)c2O)c1C [Example 167] | 126 to 128 |
| Cn1ncc(C(=O)c2ccc(OCC(F)(F)C(F)(F)F)c(N=S3(=O)CCCCC3)c2Cl)c1O [Example 242] | 106 to 108 |
| CCOc1c(C(=O)c2cnn(CC)c2O)ccc(OC)c1N=S1(=O)CCCCC1 [Example 163] | 124 to 126 |
| Cn1ncc(C(=O)c2ccc(O)c(N=S3(=O)CCCCC3)c2Cl)c1O [Example 233] | 165 to 167 |
| COC(=O)/C=C/c1ccc(C(=O)c2cnn(C)c2O)c(Cl)c1N=S1(=O)CCCCC1 [Example 91] | 145 to 150 |
| CSCOc1ccc(C(=O)c2cnn(C)c2O)c(Cl)c1N=S1(=O)CCCCC1 [Example 238] | 112 to 114 |
| Cn1ncc(C(=O)c2ccc(OCc3ccccc3)c(N=S3(=O)CCCCC3)c2Cl)c1O [Example 66] | 95 to 97 |
| CC(=O)c1ccc(C(=O)c2cnn(C)c2O)c(Cl)c1N=S1(=O)CCCCC1 [Example 255] | 100 to 104 |
| COc1ccc(C(=O)c2cnn(C)c2O)c(Cl)c1N=S(C)(=O)c1cccs1 (stereo not drawn) [Example 192] | 90 to 92 |
| CSc1ccc(C(=O)c2cnn(C)c2O)c(Cl)c1N=S1(=O)CCCCC1 [Example 42] | 157 to 159 |
| COc1ccc(C(=O)c2c(C3CC3)nn(C)c2O)c(Cl)c1N=S1(=O)CCCCC1 [Example 56] | 145 to 147 |
| O=C1CCCC(O)=C1C(=O)c1ccc(-c2ccccc2)c(N=S2(=O)CCCCC2)c1Cl [Example 23] | 166 to 168 |
| CCOc1ccc(C(=O)c2cnn(C)c2O)c(Cl)c1N=S1(=O)CCCCC1 [Example 12] | 88 to 90 |
| CCS(=O)(CC)=Nc1c(C(=O)OC)ccc(C(=O)c2cnn(C)c2O)c1Cl [Example 26] | 69 to 73 |
